For one data set, the system named is hGH promoter. Kind of data set: hGH promoter/luciferase reporter assay (high-throughput screen I), 532 cells. It counts as cell-based, rat. As to conditions: Table 2, 6 h incubation; for hGH fold inhibition relative to solvent control: transcriptional inhibitors; for hGH fold induction relative to solvent control: transcriptional activators. The source says:
6. a GC rat pituitary cell line, transfected with the growth hormone reporter plasmid, designated 532, deposited under ATCC Accession No. CRL 10663.

A further data set deals with MMTV promoter. The data set is described as follows: MMTV promoter/luciferase reporter assay (high-throughput screen I, control for specificity), M10 cells. As to conditions: Table 2, 6 h incubation; for MMTV fold inhibition relative to solvent control: transcriptional inhibitors; for MMTV fold induction relative to solvent control: transcriptional activators, original high-throughput assay. The class given is cell-based, mouse. How it is done: pMluci and pSV2Neo, an antibiotic resistance plasmid (84), were co-transfected into NIH/3T3 mouse fibroblast cells using the calcium phosphate precipitation method (85) with a commercially available kit (Pharmacia, Piscataway N.J.). Two days later, cells were transferred to media containing 0.4 mg/ml G418 and were grown for an additional 10-14 days. G418-resistant clones were isolated by standard methods. Once sufficient cell numbers were obtained, clones were analyzed based on several criteria: constitutive luciferase production, induction of luciferase expression by dexamethasone ([…], Sigma, St. Louis, Mo.), satisfactory attachment to microtiter plates used in the high-throughput screen (see section G) and acceptable standard deviation in multiple luciferase expression assays (see below for assay protocol). This analysis was carried out using the luciferase assay conditions described above. Of the clones which satisfied the above criteria for the high throughput screen, one clone, M10, was selected for use.

Another data set deals with G-CSF promoter. The data set is described as follows: G-CSF promoter/luciferase reporter assay (high-throughput screen I), G21 cells. As to conditions: for GCSF fold induction relative to solvent control: transcriptional activators.
The mark [1] stands for this setting: transcriptional inhibitors, Table 2, 6 h incubation.

SMILES strings stand for the structures. Where two headings read alike, the source gives them in different places.

Turning to `CC1=CC(=C(c2cc(C)c(O)c(C(=O)O)c2)c2c(Cl)ccc(S(=O)(=O)O)c2Cl)C=C(C(=O)O)C1=O` [Chemical 556], the “hGH fold inhibition relative to solvent control” value in the data set with hGH promoter stood at 33.33 fold. Besides, the “MMTV fold inhibition relative to solvent control” value in the data set with MMTV promoter worked out at 0.87 fold. In addition, the “GCSF fold inhibition relative to solvent control” value in the data set with G-CSF promoter (setting [1]) is recorded as 0.73 fold.
On the same counts, the results for `CC(=O)NCCCC[C@H](NC(C)=O)C(=O)O` [Chemical 577] are 4.00 fold, 0.68 fold and 0.64 fold.
The matching figures for `O=C(O[C@H](C(=O)O)[C@H](OC(=O)c1ccccc1)C(=O)O)c1ccccc1` [Chemical 578]: 4.00 fold, 0.91 fold and 0.65 fold.
Take `COc1ccc(CC(=O)O)cc1OC` [Chemical 629]: in the data set with hGH promoter, the “hGH fold induction relative to solvent control” value is given as 1.05 fold. The “MMTV fold induction relative to solvent control” value in the data set with MMTV promoter came to 2.48 fold. Moreover, the “GCSF fold induction relative to solvent control” value in the data set with G-CSF promoter (Table 2, 6 h incubation) was 0.85 fold.
In the case of `O=C(O)CC1NC(=O)NC1=O` (stereo not drawn) [Chemical 630], the “hGH fold inhibition relative to solvent control” value in the data set on hGH promoter was found to be 3.57 fold. In addition, in the data set with MMTV promoter, the “MMTV fold inhibition relative to solvent control” value was found to be 0.74 fold. The “GCSF fold inhibition relative to solvent control” value in the data set on G-CSF promoter (setting [1]) came out at 0.70 fold.
Consider `O=C(O)c1[nH]c(=O)[nH]c(=O)c1I` [Chemical 633], for which the “hGH fold induction relative to solvent control” value with hGH promoter came out at 0.86 fold. Also, the “MMTV fold induction relative to solvent control” value with MMTV promoter turned out to be 2.46 fold. The “GCSF fold induction relative to solvent control” value in the data set on G-CSF promoter (Table 2, 6 h incubation) came to 1.02 fold.
Turning to `Nc1c(O)c(S(=O)(=O)O)c(O)c2c1C(=O)c1ccccc1C2=O` [Chemical 640], in the data set on hGH promoter, the “hGH fold inhibition relative to solvent control” value is 5.00 fold. In the data set on MMTV promoter, the “MMTV fold inhibition relative to solvent control” value is listed as 0.59 fold. Moreover, the “GCSF fold inhibition relative to solvent control” value with G-CSF promoter (setting [1]) was found to be 0.64 fold.
The matching figures for `O=C(c1ccc(O)c(O)c1)c1c(O)cc(O)cc1O` [Chemical 660]: 0.34 fold, 1.04 fold and 10.0 fold.
`CN(C)c1ccc(C(=C2C=CC(=[N+](C)C)C=C2)c2ccc([N+](C)(C)C)cc2)cc1` [Chemical 670]: the “hGH fold induction relative to solvent control” value in the data set with hGH promoter came to 0.52 fold. Also, the “MMTV fold induction relative to solvent control” value in the data set with MMTV promoter was found to be 0.79 fold. In the data set on G-CSF promoter (Table 2, 6 h incubation), the “GCSF fold induction relative to solvent control” value is listed as > 3 fold.
`C1CCNCC1` [Chemical 759]: the “hGH fold inhibition relative to solvent control” value in the data set on hGH promoter was 5.88 fold. In addition, in the data set on MMTV promoter, the “MMTV fold inhibition relative to solvent control” value is on record as 0.95 fold. Moreover, in the data set on G-CSF promoter, the “GCSF fold inhibition relative to solvent control” value is reported as 0.64.
Regarding `CC(=O)OCC(=O)[C@@]1(O)CC[C@H]2[C@@H]3CCC4=CC(=O)C=C[C@]4(C)[C@H]3[C@@H](O)C[C@@]21C` [Chemical 765], in the data set with hGH promoter, the “hGH fold induction relative to solvent control” value was found to be 1.30 fold. Moreover, the “MMTV fold induction relative to solvent control” value with MMTV promoter is 2.66 fold. Also, in the data set on G-CSF promoter (Table 2, 6 h incubation), the “GCSF fold induction relative to solvent control” value amounted to 0.96 fold.
On to `CCOc1ccc2nc3cc(N)ccc3c(N)c2c1` [Chemical 790], for which the “hGH fold induction relative to solvent control” value in the data set with hGH promoter came to 5.94 fold. In addition, the “MMTV fold induction relative to solvent control” value in the data set with MMTV promoter amounted to 0.58 fold. Besides, in the data set on G-CSF promoter (Table 2, 6 h incubation), the “GCSF fold induction relative to solvent control” value came out at 0.01 fold.
On the same counts, the results for `O=C1OC2(c3cc(I)c(O)c(I)c3Oc3c2cc(I)c(O)c3I)c2c(Cl)c(Cl)c(Cl)c(Cl)c21` [Chemical 792] are 5.31 fold, 1.21 fold and 0.94 fold.
For `NC(=O)c1ccccc1O` [Chemical 798], the “hGH fold inhibition relative to solvent control” value with hGH promoter turned out to be 0.90 fold. In addition, the “MMTV fold inhibition relative to solvent control” value with MMTV promoter is recorded as 0.68 fold. Further, the “GCSF fold inhibition relative to solvent control” value in the data set with G-CSF promoter (setting [1]) was 4.76 fold.
On to `Clc1ccc(Sc2cc(Cl)c(Cl)cc2Cl)cc1` [Chemical 828], for which, in the data set with hGH promoter, the “hGH fold induction relative to solvent control” value came out at 1.34 fold. Moreover, the “MMTV fold induction relative to solvent control” value with MMTV promoter was 2.20 fold. Also, in the data set with G-CSF promoter (Table 2, 6 h incubation), the “GCSF fold induction relative to solvent control” value worked out at 1.47 fold.
On the same counts, the results for `N=c1ccc2nc3ccc(N)cc3sc-2c1` [Chemical 836] are 0.23 fold, 0.58 fold and 3.20 fold.
On the same counts, the results for `CC1(C)O[C@@H]2C[C@H]3[C@@H]4CCC5=CC(=O)C=C[C@]5(C)[C@@]4(F)[C@@H](O)C[C@]3(C)[C@]2(C(=O)CO)O1` [Chemical 848] are 1.28 fold, 2.43 fold and 0.75 fold.
As to `CCCCCCCCCCCCCCCC(=O)OCC(COC(=O)CCCCCCCCCCCCCCC)OC(=O)CCCCCCCCCCCCCCC` [Chemical 856], the “hGH fold induction relative to solvent control” value in the data set on hGH promoter was 6.49 fold. Further, the “MMTV fold induction relative to solvent control” value in the data set on MMTV promoter is on record as 0.42 fold. Further, in the data set on G-CSF promoter (Table 2, 6 h incubation), the “GCSF fold induction relative to solvent control” value turned out to be 0.28 fold.
As to `Nc1ccc(C=CC(=O)O)cc1` [Chemical 1234], the “hGH fold induction relative to solvent control” value in the data set on hGH promoter was found to be 0.51 fold. In addition, in the data set with MMTV promoter, the “MMTV fold induction relative to solvent control” value is 1.03 fold. Besides, the “GCSF fold induction relative to solvent control” value in the data set with G-CSF promoter (Table 2, 6 h incubation) worked out at 4.97 fold.
On to `Cc1c(C2(c3cc(Br)c(O)c(Br)c3C)OS(=O)(=O)c3ccccc32)cc(Br)c(O)c1Br` [Chemical 1251], for which the “hGH fold induction relative to solvent control” value in the data set with hGH promoter stood at 15.19 fold. For the same compound, the “MMTV fold induction relative to solvent control” value in the data set on MMTV promoter is on record as 0.33 fold. In the data set on G-CSF promoter (Table 2, 6 h incubation), the “GCSF fold induction relative to solvent control” value is reported as 0.14 fold.
The matching figures for `Clc1cc(Cl)cc(Br)c1` [Chemical 1255]: 0.43 fold, 1.09 fold and 6.74 fold.
As to `Nc1c(Cl)ncnc1Cl` [Chemical 1269], the “hGH fold induction relative to solvent control” value in the data set on hGH promoter was 0.91 fold. In addition, the “MMTV fold induction relative to solvent control” value in the data set on MMTV promoter is 2.18 fold. The “GCSF fold induction relative to solvent control” value in the data set on G-CSF promoter (Table 2, 6 h incubation) was determined as 0.72 fold.
On the same counts, the results for `Nc1ccc2c(c1)Cc1ccccc1-2` [Chemical 1316] are 1.39 fold, 2.33 fold and 0.74 fold.
On the same counts, the results for `Nc1ccc2c(c1)C(=O)c1ccccc1-2` [Chemical 1318] are 0.85 fold, 2.41 fold and 1.13 fold.
On the same counts, the results for `Nc1ccc(S(=O)(=O)O)c2cccc(O)c12` [Chemical 1337] are 15.87 fold, 0.23 fold and 0.07 fold.
On to `NCc1ccc(S(N)(=O)=O)cc1` [Chemical 1375], for which the “hGH fold induction relative to solvent control” value with hGH promoter came to 0.04 fold. For the same compound, in the data set on MMTV promoter, the “MMTV fold induction relative to solvent control” value is 1.37 fold. Besides, the “GCSF fold induction relative to solvent control” value in the data set with G-CSF promoter (Table 2, 6 h incubation) was found to be 8.94 fold.
On the same counts, the results for `Cc1ccc(N)c(S(=O)(=O)O)c1` [Chemical 1376] are 0.04 fold, 1.32 fold and 6.37 fold.
On the same counts, the results for `Cc1ccc(C(=O)c2ccccc2N)cc1` [Chemical 1384] are 0.50 fold, 2.43 fold and 1.33 fold.
On the same counts, the results for `Cc1cc(N)sn1` [Chemical 1397] are 0.57 fold, 1.13 fold and 3.63 fold.
In the case of `Nc1ccccc1SSc1ccccc1N` [Chemical 1482], the “hGH fold induction relative to solvent control” value in the data set on hGH promoter stood at 0.54 fold. Moreover, the “MMTV fold induction relative to solvent control” value in the data set with MMTV promoter came to 1.07 fold. For the same compound, the “GCSF fold induction relative to solvent control” value in the data set with G-CSF promoter (Table 2, 6 h incubation) is recorded as 3.99 fold.
The matching figures for `Nc1ccc(SSc2ccc(N)cc2)cc1` [Chemical 1483]: 0.38 fold, 1.09 fold and 4.64 fold.
For the compound `Nc1nc(-c2ccccc2)cs1` [Chemical 1499], the “hGH fold induction relative to solvent control” value with hGH promoter is listed as 5.55 fold. Moreover, the “MMTV fold induction relative to solvent control” value with MMTV promoter stood at 0.61 fold. In addition, the “GCSF fold induction relative to solvent control” value with G-CSF promoter (Table 2, 6 h incubation) stood at 0.24 fold.
On to `Nc1nc2nc[nH]c2c(=S)[nH]1` [Chemical 1521], for which, in the data set on hGH promoter, the “hGH fold induction relative to solvent control” value is on record as 0.73 fold. Besides, the “MMTV fold induction relative to solvent control” value in the data set with MMTV promoter came out at 0.92 fold. Further, the “GCSF fold induction relative to solvent control” value in the data set on G-CSF promoter (Table 2, 6 h incubation) is 3.59 fold.
The matching figures for `Nc1nccs1` [Chemical 1550]: 5.44 fold, 0.87 fold and 0.04 fold.
On the same counts, the results for `NC1=NCCS1` [Chemical 1552] are 7.26 fold, 0.52 fold and 1.23 fold.
